Holding throughout (assay type): cell-based
The test system of test [1] is JMAR cell line. Kind of test: Promega CellTiter-Glo (CTG) luminescent assay, JMAR. The conditions noted are these: 72 hr, mean ± standard deviation. How it is done:
(§1) b) Promega CellTiter-Glo (CTG) Luminescent Assay
(§2) Antiproliferative activities against MDA-MB-468LN, MDA1986 and JMAR cell lines were performed with 384-well white plates with the Promega CellTiter-Glo (CTG) luminescent assay with 72 hr compound treatment. Data analysis was performed using GraphPad Prism. Selected data were further checked with MTS/PMS cell viability assay with 96-well plates, which correlated well with Promega CellTiter-Glo luminescent assay.
A general note: ATP-based viability assays read luminescence as a measure of living cells.

Test [2] relates to MDA1986 cell line. Kind of test: Promega CellTiter-Glo (CTG) luminescent assay, MDA1986. How it is done:
as §1, §2

Test [3] relates to PC3-MM2 cells. The experiment in a line: Sulforhodamine B assay, PC3-MM2. The following applies: Homo sapiens, PC3MM2, mean ± standard deviation. The method, then:
(§3) c) Sulforhodamine B Assay
(§4) The sulforhodamine B assay is used to measure drug-induced cytotoxicity and cell proliferation for large-scale drug-screening applications. Its principle is based on the ability of the protein dye sulforhodamine B to bind electrostatically on pH dependent protein basic amino acid residues of trichloroacetic acid-fixed cells. The aim is to evaluate samples showing selective growth inhibition or cell killing of particular tumor cell lines.
(§5) The SRB assay is performed by treating cells using a 10 point dose-response curve. The cells are fixed with trichloroacetic acid solution and stained with sulforhodamine B dye. The stained cells are then solubilized with 10 mM Tris buffer and read for absorbance at 565 nm.
(§6) Percentage growth is calculated at each of the drug concentration levels using the absorbance raw data.
(§7) Percentage growth inhibition is calculated as: [(Ti−Tz)/(C−Tz)]×100 for concentrations for which Ti≥Tz. [(Ti−Tz)/(Tz)]×100 for concentrations for which Ti<Tz.
(§8) Ti=Absorbance of wells at a given drug concentration level.
(§9) Tz=Absorbance time zero wells
(§10) C=Absorbance of untreated wells (media and cells only)
(§11) After growth inhibition values have been calculated, the data is plotted on Graphpad Prism software. Data is entered and plotted on a sigmoidal dose-response curve using non-linear regression.
(In general: In SRB staining, fixed cells bind dye roughly in proportion to their protein.)

The test system of test [4] is MDA-MB-468LN cell line. Kind of test: Promega CellTiter-Glo (CTG) luminescent assay, MDA-MB-468LN. The conditions noted are these: Homo sapiens, 72 hr, mean ± standard deviation. The method, then:
as §1, §2

The subject of test [5] is SKBr3 cells. Kind of test: MTS/PMS cell viability assay, SKBr3. The following applies: Homo sapiens, SK-BR-3. The method, then: (§12) a) MTS/PMS Cell Viability Assay (SKBr3 and MCF-7 Cells)
(§13) Cells were maintained in a 1:1 mixture of Advanced DMEM/F12 (Gibco) supplemented with non-essential amino acids, L-glutamine (2 mM), streptomycin (500 μg/mL), penicillin (100 units/mL), and 10% FBS. Cells were grown to confluence in a humidified atmosphere (37° C., 5% CO2), seeded (2000/well, 100 μL) in 96-well plates, and allowed to attach overnight. Compound at varying concentrations in DMSO (1% DMSO final concentration) was added, and cells were returned to the incubator for 72 hr. At 72 hr, the number of viable cells was determined using an MTS/PMS cell proliferation kit (Promega) per the manufacturer's instructions. Cells incubated in 1% DMSO were used at 100% proliferation, and values were adjusted accordingly. IC50 values were calculated from separate experiments performed in triplicate using GraphPad Prism.

The subject of test [6] is MCF-7 cells. The experiment in a line: MTS/PMS cell viability assay, MCF-7. The following applies: Homo sapiens, MCF7, 72 hr, mean ± standard deviation, read-out: IC50 MCF-7. How it is done:
as §12, §13

Test [7] concerns LNCaP cells. Kind of test: Sulforhodamine B assay, LNCaP. The conditions noted are these: Homo sapiens, mean ± standard deviation. The method, then: as §3, §4, §5, §6, §7, §8, §9, §10, §11
Setting [8] is: Table 2 biphenyl triazole analogues.
Where [9] appears, read: Table 2 biphenyl triazole analogues, 72 hr, mean ± standard deviation, read-out: IC50 MDA1986.
The mark [10] stands for this setting: Table 2 biphenyl triazole analogues, 72 hr, mean ± standard deviation, read-out: IC50 SKBr3.
[11] abbreviates: Table 1 coumarin-based triazoles.
Setting [12] is: Table 1 coumarin-based triazoles, 72 hr, mean ± standard deviation, read-out: IC50 MDA1986.
The mark [13] stands for this setting: Table 1 coumarin-based triazoles, 72 hr, mean ± standard deviation, at least two experiments in triplicate, read-out: IC50 SKBr3.

The text below walks through data of patent US9994556B2, “Triazole modified coumarin and biphenyl amide-based HSP90 inhibitors” (THE UNIVERSITY OF KANSAS, priority 2014, dated 2018).

Read-outs that look alike come from different tables or passages of the source.

As usually defined, the IC50 is the midpoint of a concentration-inhibition curve. With `Cc1ccc(Cn2cc(C(=O)Nc3ccc(-c4ccc(OC5CCN(C)CC5)cc4)cc3)nn2)c(Cl)c1` [5n, 1-(2-Chloro-4-methylbenzyl)-N-(4′-((1-methylpiperidin-4-yl)oxy)-[1,1′-biphenyl]-4-yl)-1H-1,2,3-triazole-4-carboxamide], the IC50 was determined as 430 ± 250 nM in test [1] (setting [8]); 150 ± 60 nM in test [2] (setting [9]); 350 ± 120 nM in test [3] (setting [8]); 150 ± 20 nM in test [4] (setting [8]); 160 ± 10 nM in test [5] (setting [10]); 200 ± 50 nM in test [6] (setting [8]). The compound also showed an IC50 in test [7] (setting [8]) of 50 ± 40 nM.

Take `CN1CCC(Oc2ccc(-c3ccc(NC(=O)c4cn(Cc5ccc([N+](=O)[O-])cc5)nn4)cc3)cc2)CC1` [5i, 1-(4-Nitrobenzyl)-N-(4′-((1-methylpiperidin-4-yl)oxy)-[1,1′-biphenyl]-4-yl)-1H-1,2,3-triazole-4-carboxamide]: the IC50 was 210 ± 350 nM in test [1] (setting [8]); 190 ± 170 nM in test [2] (setting [9]); 1030 ± 160 nM in test [3] (setting [8]); 560 ± 250 nM in test [4] (setting [8]); 450 ± 40 nM in test [5] (setting [10]); 550 ± 10 nM in test [6] (setting [8]). Moreover, inhibition in test [7] (setting [8]) was half-maximal at 600 ± 340 nM (IC50).

With `Cc1c(OC2CCN(C)CC2)ccc2cc(NC(=O)c3cn(-c4ccc(Cl)cc4)nn3)c(=O)oc12` [4c, 1-(4-chlorophenyl)-N-(8-methyl-7-((1-methylpiperidin-4-yl)oxy)-2-oxo-2H-chromen-3-yl)-1H-1,2,3-triazole-4-carboxamide], the IC50 in test [1] (setting [11]) worked out at 430 ± 380 nM; in test [2] (setting [12]) it was 180 ± 110 nM; in test [3] (setting [11]), 2790 ± 490 nM; in test [4] (setting [11]) it was 810 ± 150 nM; in test [5] (setting [13]), 580 ± 30 nM; in test [6] (setting [11]) it was 2040 ± 250 nM. The compound further yielded an IC50 in test [7] (setting [11]) of 2450 ± 470 nM.

Take `Cc1c(OC2CCN(C)CC2)ccc2cc(NC(=O)c3cn(Cc4cccc(Cl)c4)nn3)c(=O)oc12` [4n, 1-(3-Chlorobenzyl)-N-(8-methyl-7-((1-methylpiperidin-4-yl)oxy)-2-oxo-2H-chromen-3-yl)-1H-1,2,3-triazole-4-carboxamide]: the IC50 in test [1] (setting [11]) was determined as 190 ± 100 nM; in test [2] (setting [12]), 230 ± 220 nM; in test [3] (setting [11]), 6000 ± 1130 nM; in test [4] (setting [11]), 1140 ± 1170 nM; in test [5] (setting [13]) it was 1060 ± 10 nM; in test [6] (setting [11]) it was 1680 ± 10 nM. The compound further yielded an IC50 in test [7] (setting [11]) of 3030 ± 50 nM.

In the case of `Cc1c(OC2CCN(C)CC2)ccc2cc(NC(=O)c3cn(CCc4ccccc4)nn3)c(=O)oc12` [4r, N-(8-methyl-7-((1-methylpiperidin-4-yl)oxy)-2-oxo-2H-chromen-3-yl)-1-phenethyl-1H-1,2,3-triazole-4-carboxamide], the IC50 in test [1] (setting [11]) was 740 ± 860 nM; in test [2] (setting [12]), 110 ± 300 nM; in test [2] (read-out: IC50 against MDA1986 cell line), about 110 nM; in test [3] (setting [11]), 1400 ± 40 nM; in test [4] (setting [11]) it was 990 ± 100 nM; in test [5] (setting [13]) it was 130 ± 10 nM. For the same compound, the IC50 was determined as 130 nM in test [5] (read-out: IC50 against SKBr3 cell line), 550 ± 10 nM in test [6] (setting [11]) and 2360 ± 530 nM in test [7] (setting [11]).

In the case of `COc1ccc(Cn2cc(C(=O)Nc3cc4ccc(OC5CCN(C)CC5)c(C)c4oc3=O)nn2)cc1` [4j, 1-(4-Methoxybenzyl)-N-(8-methyl-7-((1-methylpiperidin-4-yl)oxy)-2-oxo-2H-chromen-3-yl)-1H-1,2,3-triazole-4-carboxamide], the concentration for half-maximal inhibition (IC50) in test [1] (setting [11]) came to 6700 nM; in test [2] (setting [12]), 2600 ± 300 nM; in test [3] (setting [11]), 7850 ± 420 nM; in test [4] (setting [11]), 3400 ± 1270 nM; in test [5] (setting [13]) it was 1310 ± 200 nM; in test [6] (setting [11]), 1420 ± 140 nM. In addition, in test [7] (setting [11]), the IC50 is over 100000 nM.

Regarding `COc1cccc(Cn2cc(C(=O)Nc3ccc(-c4ccc(OC5CCN(C)CC5)cc4)cc3)nn2)c1` [5l, 1-(3-Methoxybenzyl)-N-(4′-((1-methylpiperidin-4-yl)oxy)-[1,1′-biphenyl]-4-yl)-1H-1,2,3-triazole-4-carboxamide], the IC50 in test [1] (setting [8]) was 210 ± 120 nM; in test [2] (setting [9]), 280 ± 90 nM; in test [3] (setting [8]) it was 550 ± 370 nM; in test [4] (setting [8]) it was 190 ± 50 nM; in test [5] (setting [10]), 320 ± 20 nM; in test [6] (setting [8]), 160 ± 20 nM. The same compound had an IC50 in test [7] (setting [8]) of 160 nM.

For `CN1CCC(Oc2ccc(-c3ccc(NC(=O)c4cn(CC5CCCCC5)nn4)cc3)cc2)CC1` [5o, 1-(Cyclohexylmethyl)-N-(4′-((1-methylpiperidin-4-yl)oxy)-[1,1′-biphenyl]-4-yl)-1H-1,2,3-triazole-4-carboxamide], the IC50 in test [1] (setting [8]) was determined as 260 ± 450 nM; in test [2] (setting [9]) it was 380 ± 140 nM; in test [3] (setting [8]), 5120 ± 6540 nM; in test [4] (setting [8]), 240 ± 60 nM; in test [5] (setting [10]), 200 ± 20 nM; in test [6] (setting [8]), 310 ± 40 nM. The same compound registered an IC50 in test [7] (setting [8]) of 480 ± 680 nM.

Turning to `Cc1c(OC2CCN(C)CC2)ccc2cc(NC(=O)c3cn(Cc4ccc(C(C)(C)C)cc4)nn3)c(=O)oc12` [4k, 1-(4-tert-Butylbenzyl)-N-(8-methyl-7-((1-methylpiperidin-4-yl)oxy)-2-oxo-2H-chromen-3-yl)-1H-1,2,3-triazole-4-carboxamide], the IC50 in test [1] (setting [11]) turned out to be 580 ± 140 nM; in test [2] (setting [12]), 340 ± 90 nM; in test [3] (setting [11]), 2370 nM; in test [4] (setting [11]), 740 ± 220 nM; in test [5] (setting [13]) it was 450 ± 30 nM; in test [6] (setting [11]) it was 1220 ± 70 nM. In test [7] (setting [11]), it took 1840 nM to reach half-maximal inhibition (IC50).

`CN1CCC(Oc2ccc(-c3ccc(NC(=O)c4cn(-c5ccccc5)nn4)cc3)cc2)CC1` [5a, N-(4′-((1-methylpiperidin-4-yl)oxy)-[1,1′-biphenyl]-4-yl)-1-phenyl-1H-1,2,3-triazole-4-carboxamide]: the IC50 came to 2200 ± 240 nM in test [1] (setting [8]); 1300 ± 90 nM in test [2] (setting [9]); 4260 ± 5590 nM in test [3] (setting [8]); 830 ± 160 nM in test [4] (setting [8]); 1140 ± 100 nM in test [5] (setting [10]); 1440 ± 180 nM in test [6] (setting [8]). In addition, it took 3890 ± 1090 nM to reach half-maximal inhibition in test [7] (setting [8]) (IC50).

In the case of `Cc1ccc(-n2cc(C(=O)Nc3cc4ccc(OC5CCN(C)CC5)c(C)c4oc3=O)nn2)cc1` [4e, 1-(4-methylphenyl)-N-(8-methyl-7-((1-methylpiperidin-4-yl)oxy)-2-oxo-2H-chromen-3-yl)-1H-1,2,3-triazole-4-carboxamide], the IC50 in test [1] (setting [11]) is 3640 nM; in test [2] (setting [12]), 290 nM; in test [3] (setting [11]), over 100000 nM; in test [4] (setting [11]) it was 4000 ± 1920 nM; in test [5] (setting [13]) it was 1080 ± 50 nM; in test [6] (setting [11]), 1380 ± 70 nM. In addition, the IC50 in test [7] (setting [11]) is over 100000 nM.

As for `CN1CCC(Oc2ccc(-c3ccc(NC(=O)c4cn(Cc5ccc(Br)cc5)nn4)cc3)cc2)CC1` [5e, 1-(4-Bromobenzyl)-N-(4′-((1-methylpiperidin-4-yl)oxy)-[1,1′-biphenyl]-4-yl)-1H-1,2,3-triazole-4-carboxamide], the IC50 in test [1] (setting [8]) was 7800 nM; in test [2] (setting [9]), 3100 ± 870 nM; in test [3] (setting [8]), 19900 ± 27900 nM; in test [4] (setting [8]), 2800 ± 610 nM; in test [5] (setting [10]) it was 490 ± 30 nM; in test [6] (setting [8]), 560 ± 40 nM. In addition, the IC50 in test [7] (setting [8]) is 540 ± 120 nM.
